{"source": "patent US11058700B2", "about": "“Macrocyclic lactones and uses thereof as modulators of purinergic receptors” (City of Hope, priority 2015, dated 2021)", "key": {"4T1.2 cells [1]": {"test_system": "4T1.2 cells", "assay": "Mitochondrial membrane potential (JC-1)", "assay_type": "cell-based, mouse", "description": "FIGS. 4A-4D. Excessive Ca^2+/CaMKII signaling and MPTP contribute to cell death. FIG. 4A: Kinetics of cytosolic Ca^2+ increase in 4T1.2 cells treated with Ivermectin. […] 4T1.2 cells were treated for 4 h with 32 μM Ivermectin in the presence of the P2X7/CaMKII dual inhibitor KN-62 or the CaMKII-specific inhibitor KN-63, at μM concentrations as indicated. FIG. 4C: Flow cytometry analysis of JC-1 loaded 4T1.2 cells showing that high doses of Ivermectin result in a sudden mitochondrial de-polarization, while lower doses cause similar effects but after transient hyper-polarization. FIG. 4D: MPTP contributes to Ivermectin. 4T1.2 cells were treated for 4 h with 32 μM Ivermectin in the presence of the MPTP inhibitor Cyclosporin A at μM concentrations as indicated. Asterisk (*) indicates p<0.05 relative to untreated or Ivermectin alone controls, respectively.\nMitochondrial membrane potential. Cancer cells in suspension were washed with PBS and loaded with 2 μM JC-1 (Life Technologies, T3168) for 15 min at room temperature in the dark. Cells were washed twice with PBS and treated with various doses of Ivermectin in R10 medium. Cells were incubated for 1 h/4 h in 5 ml FACS tubes at 37° C. and 5% CO2. After 1h/4h of treatment cells were analyzed by flow cytometry. Mitochondrial polarization was evaluated by measuring the corresponding changes in fluorescence in the FITC and PE channels. […]"}, "[2]": {"test_system": "4T1.2 breast cancer cells", "assay": "Cytosolic Cl- influx", "assay_type": "cell-based", "details": "mouse 4T1.2 cells", "description": "Cytosolic Cl^− influx. Cancer cells in suspension were treated with various doses of Ivermectin in R10 medium for 1h at 37° C. and 5% CO2. Cells were then washed with PBS and loaded with 10 μM SPQ probe (Life Technologies, M440) in a hypotonic buffer containing 50% PBS and 50% double distilled water. Following brief 15 min incubation at room temperature in the dark cells were washed once with PBS and immediately analyzed by flow cytometry measuring fluorescence in the AF350 channel."}, "4T1.2 cells [3]": {"test_system": "4T1.2 cells", "assay": "Colony assay, 4T1.2 cells seeded at 100 cells/well, colonies counted after a week", "assay_type": "cell-based, mouse", "details": "extended exposure time (Ivermectin during the entire duration of the assay)", "description": "(§1) FIGS. 1A-1H. Ivermectin kills breast cancer cells through a mixed apoptotic and necrotic mechanism. FIG. 1A: Mouse (4T1.2) and human (MDA-MB-231) TNBC cells manifest similar sensitivity to Ivermectin. Viability of cells treated with various doses of Ivermectin for 24 h. FIG. 1B: Extended exposure time reduces IC50 values to as low as 2 μM. 4T1.2 cells were seeded at 100 cells/well and individual colonies were counted after a week. Cancer cells were exposed to Ivermectin during the initial 24 h or during the entire duration of the assay. FIG. 1C: MDA-MB-231 breast cancer cells manifest higher sensitivity to Ivermectin compared to normal non-transformed human foreskin fibroblasts (HFFs). FIG. 1D: Flow cytometry analysis showing that cell death proceeds through two distinct pathways: a directly necrotic 7AAD-single positive or Annexin V/PS-single positive apoptotic pathway. FIG. 1E: Kinetics of necrotic versus apoptotic killing of 4T1.2 breast cancer cells. FIG. 1F: Ivermectin-induced cell death can be reversed by inhibition of various controlled cell death pathways. 4T1.2 cells were treated for 4 h with 32 μM Ivermectin in the presence of μM concentrations of Z-vad-fmk, Necrostatin-1, Digoxin, or VX-765, as indicated. FIG. 1G: Activation of Caspase-1, Caspase-3 and cleavage of PARP in 4T1.2 and MDA-MB-231 cells treated with 32 μM for 4 h. […]"}, "[4]": {"test_system": "4T1.2 breast cancer cells", "assay": "Flow cytometry of mode of cell death (Annexin V / 7AAD)", "assay_type": "cell-based, mouse", "details": "Ivermectin-treated breast cancer cells", "description": "as §1, with “pathways.” for “pathways. 4T1.2 cells were treated for 4 h with 32 μM Ivermectin in the presence of μM concentrations of Z-vad-fmk, Necrostatin-1, Digoxin, or VX-765, as indicated. FIG. 1G: Activation of Caspase-1, Caspase-3 and cleavage of PARP in 4T1.2 and MDA-MB-231 cells treated with 32 μM for 4 h.”\nCell viability. […] Following treatment the plates were washed once with PBS and cell viability was measured using the acid phosphatase assay. […] Absorption at 405 nm was measured within 10 min using a multi-well plate reader. Mode of cell death and viability of cells in suspension was evaluated using flow cytometry. […]"}, "breast cancer cells": {"test_system": "breast cancer cells", "assay": "Induction of autophagy (GFP-LC3 puncta, Western blot LC3 / p62)", "assay_type": "cell-based, mouse, human", "description": "FIGS. 6A-6E. Ivermectin induces autophagy. FIG. 6A: Ivermectin induces autophagy in breast cancer cells. MDA-MB-231 GFL-LC3 cells were treated with different doses of Ivermectin for 24 h and formation of green fluorescent puncta was evaluated by confocal fluorescence microscopy. FIG. 6B: Western blot confirming the induction of autophagy in both murine and human breast cancer cells, as evidenced by LC3 lipidation and autophagic degradation of p62(SQSTM1). […] MDA-MB-231 cells (triplicates) were treated with different doses of Ivermectin for up to 24h and surface stained with antibody-specific for the human M6P receptor versus isotype control. Similarly, 4T1.2 and MB231 cells were treated with different doses of Ivermectin for 4-24 h, and were stained with an antibody specific for both human and mouse CRT versus isotype control. Mean fluorescent intensity (MFI) values and ratios versus isotype control were calculated after gating on live/membrane-intact cells. FIG. 6D: Ivermectin (32 μM) induces release of HMGB1 from murine and human TNBC cells (triplicates). […] Asterisk (*) indicates p<0.05 relative to untreated or Ivermectin alone controls, respectively.\nWestern Blotting. […] Activation and cleavage of caspases was evaluated using antibodies specific for caspase-1 (NOVUS, NBP1-45433) and caspase-3 (Cell Signaling, 9665). […]"}}}
{"smiles": "CC[C@H](C)[C@H]1O[C@]2(CC[C@@H]1C)C[C@@H]1C[C@@H](C/C=C(\\C)[C@@H](O[C@H]3C[C@H](OC)[C@@H](O[C@H]4C[C@H](OC)[C@@H](O)[C@H](C)O4)[C@H](C)O3)[C@@H](C)/C=C/C=C3\\CO[C@@H]4[C@H](O)C(C)=C[C@@H](C(=O)O1)[C@]34O)O2", "note": "[Ivermectin]", "values": [{"measurement": "mitochondrial polarization", "setting": "4T1.2 cells [1]; high doses of Ivermectin, massive cell death", "result": "sudden depolarization of mitochondria"}, {"measurement": "mitochondrial polarization", "setting": "4T1.2 cells [1]; lower doses of Ivermectin", "result": "mitochondrial hyperpolarization"}, {"measurement": "cytosolic Cl- influx", "setting": "[2]", "result": "Cl^− influx"}, {"measurement": "IC50", "setting": "4T1.2 cells [3]", "result": "≥ 2000", "unit": "nM"}, {"measurement": "dying cancer cells directly necrotic (7AAD-positive)", "setting": "[4]", "result": "More than 90%"}, {"measurement": "induction of autophagy", "setting": "breast cancer cells", "result": "potent inducer of autophagy"}]}
